# Measurements published in article PMC5299686, “Betanodavirus-like particles enter host cells via clathrin-mediated endocytosis in a cholesterol-, pH- and cytoskeleton-dependent manner” (Veterinary Research, 2017).
# Like-named read-outs stand apart in the source and are kept apart here.
# What was measured:
# [1] = test system: RBS entry into SB cells; assay: VLP (RBS) entry assay with inhibitor or siRNA perturbation, ELISA quantitation; assay type: cell-based, Lates calcarifer; settings: for change of RBS entry efficiency compared with untreated cells: 2 h entry
# Procedure: (§1) Virus-like particles entry (invasion) assays were performed using SB or other indicated cells as described. In brief, the cells were seeded on coverslips in 12-well plates or cultured in 96-well plates for 18 or 24 h to achieve 70% confluence, pretreated with the indicated inhibitors at the indicated temperature (26 °C for fish cells, 28 °C for insect cells, and 37 °C for mammalian cells) and concentration (Table 1) for 1 h, and then incubated with RBS or CGV in the presence of the inhibitors for 1 h on ice. After that, the cells were washed three times with pre-cooling PBS, shifted to 28 °C to start entry, and visualized directly by fluorescent microscopy for CGV entry kinetics, or fixed for IFA followed by fluorescent microscopy, or collected for ELISA at the indicated times. In the untreated (positive) or mock-infected (negative) controls, the cells were subjected to no inhibitor treatment or no VLP incubation respectively. The entry assay of each inhibitor was repeated at least three times.
# Six wells of cells in a 96-well plate treated with the same condition in entry assays were washed thoroughly with PBS, lysed with 20 μL of lysis buffer in each well and combined as one sample. Endogenous β-actin was used as an internal normalization control for ELISA. Three-hundred microliters of 30-fold diluted lysate for VLP detection or 100-fold diluted lysate for β-actin detection were coated equally in three wells of a 96-well microtiter plate at 4 °C overnight, respectively. The plate was conducted to room temperature and washed three times with 200 μL PBS. After blocking with 5% bovine serum albumin (BSA) in PBS for 1 h at room temperature and washing three times (all washes below indicate triplicate washings) with 200 μL PBS containing 0.05% Tween20 (PBST), the plate was incubated with in-house produced mouse anti-VLP antiserum at a dilution of 1:2000 in PBS for 1 h. The plate was washed and peroxidase-conjugated goat anti-mouse IgG (Sigma) at a dilution of 1:3000 in PBS was added and incubated for 1 h. Following thorough washings (five times), 100 μL of OPD substrate (Sigma) was added and the color development was conducted at room temperature. The reaction was stopped by the addition of 4 M sulfuric acid and the absorbance at 492 nm was determined. The OD492 of each sample including treated and untreated cells was normalized with the corresponding OD492 of β-actin to obtain the relative VLP quantity. The entry efficiency was generated as the percentage of treated cells with incorporated VLP relative to that for untreated cells. The VLP entry efficiency of untreated cells was arbitrarily set as 100%. The data shown are the mean ± SD of the results from three independent experiments. Statistical differences of VLP content from different groups were assessed by paired Student’s t tests. Numerical results are presented as mean ± SD with 95% confidence intervals and p < 0.05 was considered statistically significant (*, p < 0.05; **, p < 0.01).
# [2] = test system: SB cells; assay: Cytotoxicity assay (CellTiter 96 AQueous One Solution Cell Proliferation Assay)
# Procedure: To optimize the working concentration of the inhibitors, the cytotoxicity of the drugs to SB cells were evaluated. SB cells grown in 96-well plates were treated with the inhibitors at different concentrations for 4 h. Then cell viability was assayed using CellTiter 96® AQueous One Solution Cell Proliferation Assay (Promega, USA) according to the manufacturer’s instructions.
# [3] = test system: RBS entry into SB cells; assay: VLP (RBS) entry assay, IFA and fluorescent microscopy; assay type: cell-based, Lates calcarifer; settings: at the working concentrations (CPZ 1 to 70 μM; dynasore 1, 10, 80 μM; siRNA 48 h post-transfection)
# Procedure: (§2) Virus-like particles entry (invasion) assays were performed using SB or other indicated cells as described. In brief, the cells were seeded on coverslips in 12-well plates or cultured in 96-well plates for 18 or 24 h to achieve 70% confluence, pretreated with the indicated inhibitors at the indicated temperature (26 °C for fish cells, 28 °C for insect cells, and 37 °C for mammalian cells) and concentration (Table 1) for 1 h, and then incubated with RBS or CGV in the presence of the inhibitors for 1 h on ice. […]
# (§3) Cells were washed twice with PBS, fixed with 4% paraformaldehyde for 15 min, permeated with 0.2% Triton X-100 for 10 min, and then blocked with 5% BSA for 1 h. […] For identification of entry and trafficking of RBS in cells, images were acquired using a laser scanning confocal fluorescence microscope (TCS-SP5, Leica Microsystems Wetzlar GmbH Inc., Germany). Images were acquired randomly from 5 different fields of view per coverslip to get more than 20 cells and to allow observing the signals of targets and nuclei fluorescence by Leica Application Suite (2.6.0 build 7266). […] The results are expressed as the mean ± standard deviation (SD).
# [4] = test system: RBS entry into SSN-1 cells; assay: VLP entry assay and IFA on SSN-1 cells; assay type: cell-based, Channa striatus; settings: SSN-1 cells pretreated with CPZ for 1 h
# Procedure: as §2, §3
# [5] = test system: RBS entry into GB cells; assay: VLP entry assay and IFA on GB cells; assay type: cell-based, Epinephelus coioides; settings: GB cells pretreated with CPZ for 1 h
# Procedure: as §2, §3
# [6] = test system: CGV entry into SB cells; assay: CGV entry assay, ELISA quantitation; assay type: cell-based, Lates calcarifer
# Procedure: as §1, with “In the untreated (positive) or mock-infected (negative) controls, the cells were subjected to no inhibitor treatment or no VLP incubation respectively. The entry assay of each inhibitor was repeated at least three times.” left out
# Six wells of cells in a 96-well plate treated with the same condition in entry assays were washed thoroughly with PBS, lysed with 20 μL of lysis buffer in each well and combined as one sample. […] The reaction was stopped by the addition of 4 M sulfuric acid and the absorbance at 492 nm was determined. The OD492 of each sample including treated and untreated cells was normalized with the corresponding OD492 of β-actin to obtain the relative VLP quantity. […] Statistical differences of VLP content from different groups were assessed by paired Student’s t tests. […]
# [7] = Lates calcarifer, read-out: RBS entry blocked (inhibited)
# [8] = 40 μM inhibitor alone, SB cells, ELISA
# [9] = 1 mM inhibitor, SB cells, ELISA
compound,measurement,setting,value
COC(=O)Nc1nc2ccc(C(=O)c3cccs3)cc2[nH]1 [nocodazole],inhibition at 1 µM,[1]; [7],59.4%
same,inhibition at 5 µM,[1]; [7],74%
same,inhibition at 50 µM,[1]; [7],81.3%
same,"MC, max concentration that can be used without cytotoxicity","[2]; SB cells, 4 h treatment",160 µM
COC[C@H]1OC(=O)c2coc3c2[C@@]1(C)C1=C(C3=O)[C@@H]2CCC(=O)[C@@]2(C)C[C@H]1OC(C)=O [wortmannin],inhibition at 1 µM,[1]; [7],-1.4%
same,inhibition at 10 µM,[1]; [7],0.82%
same,inhibition at 50 µM,[1]; [7],23%
same,"MC, max concentration that can be used without cytotoxicity","[2]; SB cells, 4 h treatment",50 µM
"C=C1[C@@H](C)[C@H]2[C@H](Cc3ccccc3)NC(=O)[C@]23[C@H](OC(C)=O)/C=C/[C@@](C)(O)C(=O)[C@@H](C)C/C=C/[C@H]3[C@@H]1O [CytD, cytochalasin D]",inhibition at 1 µM,[1]; [7],83.2%
same,inhibition at 10 µM,[1]; [7],96%
same,inhibition at 77.8 µM,[1]; [7],96.5%
same,"MC, max concentration that can be used without cytotoxicity","[2]; SB cells, 4 h treatment",77.8 µM
Oc1ccc2ccccc2c1SSc1c(O)ccc2ccccc12 [IPA-3],change of RBS entry efficiency compared with untreated cells,[1]; [8],no statistically significant change
same,"MC, max concentration that can be used without cytotoxicity","[2]; SB cells, 4 h treatment",40 µM
"CN(C)CCCN1c2ccccc2Sc2ccc(Cl)cc21 [CPZ, chlorpromazine]",change of RBS entry efficiency compared with untreated cells,"[1]; 7 μM inhibitor alone, SB cells, ELISA",dramatically reduced
same,VLP entry efficiency (untreated cells = 100%),"[1]; 70 μM inhibitor, SB cells, ELISA",5%
same,inhibition at 1 µM,[1]; [7],70%
same,inhibition at 7 µM,[1]; [7],80%
same,inhibition at 70 µM,[1]; [7],95%
same,"MC, max concentration that can be used without cytotoxicity","[2]; SB cells, 4 h treatment",700 µM
same,fluorescent signal of RBS in cells (IFA) compared with untreated cells,[3],significantly reduced
same,VLP entry efficiency in treated compared with untreated samples (IFA),[4],dramatically decreased
same,VLP entry efficiency in treated compared with untreated samples (IFA),[5],dramatically decreased
CCN(CC)CCCC(C)Nc1ccnc2cc(Cl)ccc12 (centres unmarked) [chloroquine],RBS entry blocked (inhibited),[1]; [9],totally block
same,inhibition at 10 µM,[1]; [7],> 70%
same,"MC, max concentration that can be used without cytotoxicity","[2]; SB cells, 4 h treatment",1000 µM
O=C(N/N=C/c1ccc(O)c(O)c1)c1cc2ccccc2cc1O [dynasore],VLP entry efficiency (untreated cells = 100%),"[1]; 1 μM inhibitor, SB cells, ELISA",71.4%
same,VLP entry efficiency (untreated cells = 100%),"[1]; 10 μM inhibitor, SB cells, ELISA",48.5%
same,VLP entry efficiency (untreated cells = 100%),"[1]; 80 μM inhibitor, SB cells, ELISA",40%
same,"MC, max concentration that can be used without cytotoxicity","[2]; SB cells, 4 h treatment",800 µM
same,fluorescent signal of RBS in cells (IFA) compared with untreated cells,[3],significantly reduced
"Cl.N [NH4Cl, ammonia chloride]",VLP entry efficiency (untreated cells = 100%),"[1]; 50 mM inhibitor, SB cells, ELISA",25%
same,"MC, max concentration that can be used without cytotoxicity",[2],50 000 μM
CCN(CC)CCCC(C)Nc1nc(C)cc(Nc2ccc3nc(C)cc(N)c3c2)n1 (centres unmarked) [NSC23766],change of RBS entry efficiency compared with untreated cells,[1]; [8],no statistically significant change
same,"MC, max concentration that can be used without cytotoxicity","[2]; SB cells, 4 h treatment",40 µM
CC(=O)c1c(O)c(C)c(O)c(Cc2c(O)c3c(c(C(=O)/C=C/c4ccccc4)c2O)OC(C)(C)C=C3)c1O [rottlerin],change of RBS entry efficiency compared with untreated cells,[1]; [8],no statistically significant change
same,"MC, max concentration that can be used without cytotoxicity","[2]; SB cells, 4 h treatment",40 µM
CC(C)CCC[C@@H](C)[C@H]1CC[C@H]2[C@@H]3CC=C4C[C@@H](O)CC[C@]4(C)[C@H]3CC[C@]12C [cholesterol],effect of cholesterol supplement on CGV entry,[6]; SB cells not treated with MβCD,did not enhance the entry of CGV
same,CGV entry efficiency after cholesterol replenishment compared with mock-treated cells,"[6]; SB cells pretreated with 5 mM MβCD, then exogenous cholesterol 0.8 μg/μL for 1 h",57%
methyl-β-cyclodextrin [MβCD],RBS entry blocked (inhibited),"[1]; 0.5 mM inhibitor, SB cells, ELISA",63.6%
same,RBS entry blocked (inhibited),[1]; [9],59.5%
same,RBS entry blocked (inhibited),"[1]; 2 mM inhibitor, SB cells, ELISA",74.4%
O=S(=O)(c1cccc2c(I)cccc12)N1CCCNCC1 [ML-7],change of RBS entry efficiency compared with untreated cells,[1]; [8],no statistically significant change
same,"MC, max concentration that can be used without cytotoxicity","[2]; SB cells, 4 h treatment",40 µM
O=c1c(-c2ccc(O)cc2)coc2cc(O)cc(O)c12 [genistein],entry quantity of VLP compared with mock-treated control,"[1]; 100 μM inhibitor, SB cells, ELISA",88%
same,"MC, max concentration that can be used without cytotoxicity","[2]; SB cells, 4 h treatment",100 µM
CN(C)C[C@H](O)Cn1c2ccc(Br)cc2c2cc(Br)ccc21 (racemic) [wiskostatin],inhibition at 1 µM,[1]; [7],77.9%
same,inhibition at 10 µM,[1]; [7],84.6%
same,inhibition at 50 µM,[1]; [7],94.2%
same,"MC, max concentration that can be used without cytotoxicity","[2]; SB cells, 4 h treatment",50 µM
